# In article PMC6941144 (ACS chemical biology, 2019):
# How the values were obtained:
# HIV-1 protease 9Mut-L76V = HIV-1 protease 9Mut-L76V (Human immunodeficiency virus type 1 group M subtype B, UniProt P12497, G504E/I501V/I572V/K533I/L521F/L564V/M534I/Q495K/V520I/V570F); details: relative to 8Mut; ΔG = RTln[Ki]
# HIV-1 protease 11Mut = HIV-1 protease 11Mut (Human immunodeficiency virus type 1 group M subtype B, UniProt P12497, A559V/G504E/I501V/I542L/I572V/K533I/L521F/L564V/M534I/Q495K/V520I/V570F); details: 11Mut vs WT
# HIV-1 protease 9Mut-A71V = HIV-1 protease 9Mut-A71V (Human immunodeficiency virus type 1 group M subtype B, UniProt P12497, A559V/G504E/I501V/I572V/K533I/L521F/M534I/Q495K/V520I/V570F); details: relative to 8Mut; ΔG = RTln[Ki]
# [1] = system: HIV-1 protease 2Mut (V82F, I84V); experiment: Enzyme inhibition; assay type: biochemical; details: primary active site mutations (2 mutations); abstract
# HIV-1 protease 10Mut = HIV-1 protease 10Mut (Human immunodeficiency virus type 1 group M subtype B, UniProt P12497, A559V/G504E/I501V/I572V/K533I/L521F/L564V/M534I/Q495K/V520I/V570F); details: relative to 8Mut; ΔG = RTln[Ki]
smiles,measurement,setting,value
"CC(C)CN(C[C@@H](O)[C@H](Cc1ccccc1)NC(=O)O[C@H]1CO[C@H]2OCC[C@H]21)S(=O)(=O)c1ccc(N)cc1 [DRV, Darunavir]",ΔΔG9Mut-L76V (change in free energy of inhibitor binding),HIV-1 protease 9Mut-L76V,1.55 ± 0.10 kcal/mol
same,decrease in inhibition compared to WT,HIV-1 protease 11Mut,"152,000 fold"
same,ΔΔG9Mut-A71V (change in free energy of inhibitor binding),HIV-1 protease 9Mut-A71V,0.35 ± 0.07 kcal/mol
same,loss in potency,[1],~ 50 fold
same,ΔΔG10Mut (change in free energy of inhibitor binding),HIV-1 protease 10Mut,1.45 ± 0.05 kcal/mol
